Experimental data taken from patent US10654834B2 (Venenum Biodesign, LLC, priority 2016, dated 2020).

How the values were obtained:
[1] = Plasma concentration of compound in lean C57BL/6N mice after OGTT; format: in vivo, mouse; conditions: 6 h after 30 mg/kg + sitagliptin 3 mg/kg
Method: In these studies, the plasma concentration of the compounds of the present invention was measured in DIO mice as well as lean C57BL/6N mice.
In the second study (data represented in FIG. 11), plasma concentration levels were measured in lean mice after an OGTT experiment described in Example 84. The blood was collected via cardiac puncture 6 hours post compound dosing (and 2 hours after the 2 g/kg glucose bolus). The blood samples (?250 μL) were placed in an EDTA K^2+ tube and plasma was processed for analytical chemistry and analyzed by LCMS/MS method as described in Example 81. FIG. 11 depicts low levels of Compound 268 following OGTT in lean C57BL/6N mice, 6 hours after treatment with 30 mg/kg in combination with 3 mg/kg sitagliptin.

[2] = Plasma concentrations after chronic dosing (5 days) in DIO mice; format: in vivo, mouse; conditions: after second and tenth dose, 0-12 h
Method: Plasma Concentrations after Chronic Dosing of Compound
In the study, the plasma level of compounds of the present invention (i.e., Compound 268) was monitored at day 1 and day 5. The same animal protocol as described in Examples 87 and 88 was utilized.
FIG. 14 depicts the plasma concentration of Compound 268 at 0, 3, 6, 9, and 12 hours after the second and at 3, 6, 9, and 12 hours after the tenth dose. […] No significant increases were observed over time.

[3] = Portal vein versus systemic pharmacokinetics in hepatic portal vein cannulated CD(SD) rats; format: in vivo; conditions: male, rat, 10 mg/kg oral; for AUC(0-t): read-out: AUC (0→7 h)
Method: Low Level of Compounds is Attributed to Low Intestinal Absorption
In this study, we determined if low plasma level of the compounds of the present invention is due to low absorption in the gut, or due to the first pass effect (i.e., absorption followed by a rapid degradation of compounds by liver). Hepatic portal vein cannulated male CD(SD) rats obtained from Charles River Laboratory were utilized. In brief, Compound 268 was administered orally at 10 mg/kg, and the blood was obtained simultaneously from the portal vein and systemic circulation (retro-orbital sinus) at predose, 0.25, 0.5, 1, 2, and 4 hours post-dose, in EDTA coated tubes. The samples were processed into plasma and quantification of compound levels in the plasma was accomplished by means of LC-MS/MS analysis as described in Example 81.

[4] = Body weight over 6 weeks of BID dosing in DIO mice; format: in vivo, mouse; conditions: 30 mg/kg BID p.o.
Method: Monitoring of Weight Loss after Multiple Weeks of Dosing Compounds
Compounds of the present invention were dosed for multiple weeks and were evaluated for their ability to cause mice to lose weight.
(§1) In the next series of studies (Examples 93-99), Male DIO mice were received at 12 weeks of age (from Taconic), and were single-housed at the testing facility and acclimated for at least 2 weeks. The mice were provided a high fat diet [Research Diet D12492 (60% Fat kcal)] while in the testing facility. Before the study initiation, the animals were randomized into 5 experimental groups by body weight. The vehicle group contained only 0.5% carboxymethylcellulose (medium viscosity)+0.25% Tween-80. The second group contained 10 mg/kg of the DPP-IV inhibitor Sitagliptin while the third group contained 30 mg/kg Compound 268. The fourth group contained the combination of 10 mg/kg Sitagliptin and 30 mg/kg Compound 268. The fifth group was the positive control for weight loss, Rimonabant. All mice were dosed BID at approximately 6:00 am and again at approximately 4:00 pm. The positive control rimonabant was administered at a dose of 10 mg/kg in the afternoon and the morning dosing was vehicle (no compound).
Compounds of the present invention were evaluated for their ability to cause mice to lose weight. Mice were dosed compounds for 6 weeks and body weights were recorded twice a week.

[5] = Bile weight after chronic dosing (5 days) in DIO mice; format: in vivo, mouse; conditions: 30 mg/kg + sitagliptin 10 mg/kg, after second and tenth treatment, versus sitagliptin alone
Method: Bile Weight after Chronic Dosing of Compounds
In this study, chronic dosing of compounds of the present invention was examined to determine if they lead to an increase in bile weight.
FIG. 13 depicts the time course of bile weight changes over time (i.e., 0, 3, 6, 9, and 12 hours) after the second and the tenth treatment with Compound 268 using the protocol in Example 87.

[6] = Food intake over multiple weeks of dosing in DIO mice; format: in vivo, mouse; conditions: 30 mg/kg BID p.o., 6 weeks
Text: as §1, with “compound). […]” for “compound).”
Compounds of the present invention were dosed for multiple weeks and were evaluated for their ability to cause mice to have a lower food intake. […]
The HFD (Research Diets, D12492, 60% fat kcal) was placed at the bottom of the cage on a singly-housed animal. […] Daily food intake is calculated by averaging over a 3 or 4 day period every week.

[7] = Comparison of PK in DIO mice and lean mice; format: in vivo, mouse; conditions: for Cmax / AUC(0-t) / Tmax: mouse, plasma; for AUC(0-t): read-out: AUC (0→4 h)
Method: Comparison of PK in DIO Mice and Lean Mice
The PK characteristics of Compound 268 were examined in non-fasted lean C57BL/6N and DIO mice (Taconic). Compound 268 was orally administered to both groups at 10 mg/kg by oral gavage and plasma concentration of the compound was determined as described in Example 81.
In addition, PK parameters were determined for Compound 268 (i.e., Cmax, Tmax, and AUC) following oral administration in four groups of mice: (i) fasted lean mice; (ii) non-fasted lean mice; (iii) non-fasted DIO mice; and (iv) lean mice receiving ABT.
The ABT treatment confirms that the low Cmax value of Compound 268 is attributed to […].

[8] = plasma (portal vein blood), Portal Vein bleed
[9] = plasma (systemic blood), Peripheral bleed (retro-orbital sinus)
[10] = C57BL/6N, po, 10 mg/kg, Non-fasted DIO mice, oral (Table 58)
[11] = C57BL/6N, po, 10 mg/kg, Non-fasted Lean mice, oral (Table 58)
[12] = po, 10 mg/kg, Fasted Lean mice, oral (Table 58)
[13] = po, 10 mg/kg, lean mice receiving ABT (150 mg/kg), oral (Table 58)

Structure (SMILES): N#Cc1ccc(CCNC(=O)[C@@H]2CCN2c2cc(N3CCC(CCNC(=O)NCCC(=O)O)CC3)nc(C(F)(F)F)n2)cc1 [Compound 268, (S)-3-(3-(2-(1-(6-(2-((4-cyanophenethyl)carbamoyl)azetidin-1-yl)-2-(trifluoromethyl)pyrimidin-4-yl)piperidin-4-yl)ethyl)ureido)propanoic acid]
- plasma concentration of compound [1]: low levels
- plasma level of compound after chronic dosing [2]: maintained at a low concentration level
- Cmax [3, 8]: 15.7 ± 6.7 ng/mL
- Tmax [3, 8]: 15 to 60 min
- AUC(0-t) [3, 8]: 49.1 ± 47.3 ng·h/mL
- Cmax [3, 9]: 43.9 ± 50.2 ng/mL
- Tmax [3, 9]: 15 to 60 min
- AUC(0-t) [3, 9]: 76.2 ± 84.3 ng·h/mL
- body weight change [4]: modest weight loss
- bile weight after chronic dosing [5]: no significant changes in bile weight
- food intake [6]: minor, but steady effect on food intake
- Cmax ([7]; C57BL/6N, po, 10 mg/kg, DIO mice, Non-fasted PK, p.o. (Table 57)): 0.6 nM
- Cmax ([7]; C57BL/6N, po, 10 mg/kg, Lean mice, Non-fasted PK, p.o. (Table 57)): 2.1 nM
- Cmax [7, 10]: 0.57 nM
- AUC(0-t) [7, 10]: 0.76 ng·h/mL
- Cmax [7, 11]: 2.1 nM
- AUC(0-t) [7, 11]: 2.9 ng·h/mL
- Tmax ([7]; C57BL/6N, po, DIO mice, Non-fasted PK, 10 mg/kg, p.o. (Table 57)): 60 min
- Tmax ([7]; 10 mg/kg, Fasted Lean mice, oral (Table 58)): 15 min
- Cmax [7, 12]: 12 nM
- AUC(0-t) [7, 12]: 18 ng·h/mL
- Cmax [7, 13]: 4.2 nM
- AUC(0-t) [7, 13]: 5.1 ng·h/mL
- Tmax ([7]; lean mice receiving ABT (150 mg/kg), oral (Table 58)): 30 min
- Cmax profile in fasted lean, non-fasted lean, non-fasted DIO mice ([7]; oral administration): low Cmax profile
